Reference: PubChem BioAssay AID330 (DTP/NCI, 2004)
“And” between values parts separate entries of the source, which are not always exact repeats. Equal entries are not always repeated. Inconclusive results and toxic doses are left out. The calls were made as follows: active = survival T/C of 150% or more; inactive = T/C below 125% in these data.

System: P388 leukemia ip, CD2F1 mice, survival T/C
Assay: NCI In Vivo Anticancer Drug Screen. Data for tumor model P388 Leukemia (intraperitoneal) in CD2F1 (CDF1) mice
Details: endpoint: median survival time, higher = longer survival
Outline: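 Mice carrying the transplanted tumor received test compound or vehicle. Survival was recorded in each group, and the value is the treated-group measurement divided by that of the vehicle-treated control group.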

[1] = dose: 50.0 mg/kg/injection, schedule: Q01DX009 (ip), vehicle: Klucel (hydroxypropylcellulose) (HPC)
[2] = dose: 100.0 mg/kg/injection, schedule: Q01DX009 (ip), vehicle: Klucel (hydroxypropylcellulose) (HPC)
[3] = dose: 200.0 mg/kg/injection, schedule: Q01DX009 (ip), vehicle: Klucel (hydroxypropylcellulose) (HPC)
[4] = dose: 50.0 mg/kg/injection, schedule: Q01DX005 (ip), vehicle: saline with Tween-80
[5] = dose: 100.0 mg/kg/injection, schedule: Q01DX005 (ip), vehicle: saline with Tween-80
[6] = dose: 200.0 mg/kg/injection, schedule: Q01DX005 (ip), vehicle: saline with Tween-80
[7] = dose: 12.5 mg/kg/injection, schedule: Q01DX009 (ip), vehicle: saline with Tween-80
[8] = dose: 25.0 mg/kg/injection, schedule: Q01DX009 (ip), vehicle: saline with Tween-80
[9] = dose: 50.0 mg/kg/injection, schedule: Q01DX005 (ip), vehicle: saline
[10] = dose: 50.0 mg/kg/injection, schedule: Q01DX009 (ip), vehicle: saline with Tween-80
[11] = dose: 100.0 mg/kg/injection, schedule: Q01DX005 (ip), vehicle: saline
[12] = dose: 200.0 mg/kg/injection, schedule: Q01DX009 (ip), vehicle: saline with Tween-80
[13] = dose: 100.0 mg/kg/injection, schedule: Q04DX003 (ip), vehicle: Klucel (hydroxypropylcellulose) (HPC)
[14] = dose: 200.0 mg/kg/injection, schedule: Q04DX003 (ip), vehicle: Klucel (hydroxypropylcellulose) (HPC)
[15] = dose: 400.0 mg/kg/injection, schedule: Q04DX003 (ip), vehicle: Klucel (hydroxypropylcellulose) (HPC)
[16] = dose: 60.0 mg/kg/injection, schedule: Q01DX005 (ip), vehicle: saline with Tween-80
[17] = dose: 120.0 mg/kg/injection, schedule: Q01DX005 (ip), vehicle: saline with Tween-80
[18] = dose: 240.0 mg/kg/injection, schedule: Q01DX005 (ip), vehicle: saline with Tween-80
[19] = dose: 100.0 mg/kg/injection, schedule: Q01DX009 (ip), vehicle: saline with Tween-80

Measured: T/C

CNC1=C(C(=O)c2ccccc2)CCC1
inactive: dose: 6.25 mg/kg/injection, schedule: Q01DX009 (ip), vehicle: saline 104 % of control | dose: 12.5 mg/kg/injection, schedule: Q01DX009 (ip), vehicle: saline 104 % of control | dose: 25.0 mg/kg/injection, schedule: Q01DX009 (ip), vehicle: saline 101 % of control | dose: 50.0 mg/kg/injection, schedule: Q01DX009 (ip), vehicle: saline 101 % of control | dose: 100.0 mg/kg/injection, schedule: Q01DX009 (ip), vehicle: saline 104 % of control and 87 % of control and 95 % of control | dose: 200.0 mg/kg/injection, schedule: Q01DX009 (ip), vehicle: saline 124 % of control and 90 % of control and 95 % of control

FC(F)(F)c1cccc(OCC2CO2)c1 (stereo unspecified)
inactive: [1] 102 % of control | [2] 99 % of control | [3] 97 % of control

O=C1c2ccccc2C(=O)c2c(NCCCNCCO)ccc(NCCCNCCO)c21
inactive: dose: 3.75 mg/kg/injection, schedule: Q01DX005 (ip), vehicle: other 104 % of control | dose: 6.25 mg/kg/injection, schedule: Q01DX009 (ip), vehicle: water 101 % of control | dose: 7.5 mg/kg/injection, schedule: Q01DX005 (ip), vehicle: other 111 % of control | dose: 7.5 mg/kg/injection, schedule: Q01DX009 (ip), vehicle: water 110 % of control | dose: 12.5 mg/kg/injection, schedule: Q01DX009 (ip), vehicle: water 117 % of control | dose: 15.0 mg/kg/injection, schedule: Q01DX005 (ip), vehicle: other 119 % of control | dose: 15.0 mg/kg/injection, schedule: Q01DX009 (ip), vehicle: water 117 % of control | dose: 30.0 mg/kg/injection, schedule: Q01DX005 (ip), vehicle: other 120 % of control | dose: 100.0 mg/kg/injection, schedule: Q01DX009 (ip), vehicle: other 97 % of control | dose: 100.0 mg/kg/injection, schedule: Q01DX009 (ip), vehicle: water 99 % of control

CC1(C)OCC(C2OC3OC(C)(C)OC3C2N=O)O1 (stereo unspecified)
inactive: dose: 94.5 mg/kg/injection, schedule: Q04DX002 (ip), vehicle: Klucel (hydroxypropylcellulose) (HPC) 103 % of control | dose: 189.0 mg/kg/injection, schedule: Q04DX002 (ip), vehicle: Klucel (hydroxypropylcellulose) (HPC) 96 % of control | dose: 378.0 mg/kg/injection, schedule: Q04DX002 (ip), vehicle: Klucel (hydroxypropylcellulose) (HPC) 90 % of control

C=C1C(=C)C2OC1c1cc3c(cc12)C(=O)c1ccccc1C3=O
inactive: [4] 90 % of control | [5] 109 % of control | [6] 114 % of control

CC1CCC2N(C1)CC1C3(O)CC45OC6(O)C(O)CCC4(C)C6CCC5C3(O)CC(O)C1(O)C2(C)O (stereo unspecified)
inactive: dose: 3.12 mg/kg/injection, schedule: Q01DX009 (ip), vehicle: saline with Tween-80 103 % of control | dose: 6.25 mg/kg/injection, schedule: Q01DX009 (ip), vehicle: saline with Tween-80 112 % of control | [7] 98 % of control | dose: 25.0 mg/kg/injection, schedule: Q01DX005 (ip), vehicle: saline 114 % of control | [8] 103 % of control | [9] 109 % of control | [10] 98 % of control | [11] 107 % of control

O=C1OCC/C1=C1/Nc2ccccc2NC1=O
inactive: [10] 89 % of control | [12] 91 % of control

FC(F)(F)c1ccccc1NC(=S)SCc1ccco1
inactive: dose: 50.0 mg/kg/injection, schedule: Q01DX009 (ip), vehicle: suspension in saline 93 % of control | dose: 100.0 mg/kg/injection, schedule: Q01DX009 (ip), vehicle: suspension in saline 93 % of control

Cc1cccc(=O)[n-]1.Cc1cccc(=O)[n-]1.Cc1cccc(=O)[n-]1.Cc1cccc(=O)[n-]1.[Mo+2].[Mo+2]
inactive: dose: 100.0 mg/kg/injection, schedule: Q04DX002 (ip), vehicle: Klucel (hydroxypropylcellulose) (HPC) 102 % of control | dose: 200.0 mg/kg/injection, schedule: Q04DX002 (ip), vehicle: Klucel (hydroxypropylcellulose) (HPC) 98 % of control | dose: 400.0 mg/kg/injection, schedule: Q04DX002 (ip), vehicle: Klucel (hydroxypropylcellulose) (HPC) 100 % of control

CCCCCCCC[N+](C)(C)Cc1ccc(Oc2ccc(C[N+](C)(C)CCCCCCCC)cc2)cc1
inactive: dose: 6.25 mg/kg/injection, schedule: Q04DX003 (ip), vehicle: saline 108 % of control | dose: 12.5 mg/kg/injection, schedule: Q04DX003 (ip), vehicle: saline 110 % of control | dose: 25.0 mg/kg/injection, schedule: Q04DX003 (ip), vehicle: saline 110 % of control

Cc1ccc(S(=O)(=O)F)c(Cl)c1
inactive: [13] 95 % of control | [14] 119 % of control | [15] 103 % of control

O=C1CCCc2[nH]c3ccc(F)cc3c21
inactive: [4] 91 % of control | [5] 90 % of control | [6] 88 % of control

O=C(O)CCCCC=C(c1ccccc1)c1ccccc1
inactive: dose: 50.0 mg/kg/injection, schedule: Q01DX005 (ip), vehicle: saline + Tween-80 + alcohol 101 % of control | dose: 100.0 mg/kg/injection, schedule: Q01DX005 (ip), vehicle: saline + Tween-80 + alcohol 102 % of control | dose: 200.0 mg/kg/injection, schedule: Q01DX005 (ip), vehicle: saline + Tween-80 + alcohol 101 % of control

O=C1C=C[C@]2(C(=O)O)[C@@H]3C=C[C@@H](CC3)[C@H]12
inactive: [13] 96 % of control | [14] 100 % of control | [15] 90 % of control

Cc1nc(N(C)C)oc(=O)c1CCc1ccccc1
inactive: [16] 102 % of control | [17] 102 % of control | [18] 100 % of control

CC1=N/C(=C\C=C\c2ccccc2)C(=O)O1
inactive: [9] 104 % of control | [11] 101 % of control | dose: 200.0 mg/kg/injection, schedule: Q01DX005 (ip), vehicle: saline 103 % of control

Cc1cc([Se][Se]c2cc(C)c(C)cc2[N+](=O)[O-])c([N+](=O)[O-])cc1C
inactive: [16] 92 % of control | [17] 93 % of control | [18] 91 % of control

O=C1NC(N(CCCl)CCCl)=NC1(c1ccccc1)c1ccccc1
inactive: dose: 12.5 mg/kg/injection, schedule: Q04DX002 (ip), vehicle: saline with Tween-80 97 % of control | dose: 25.0 mg/kg/injection, schedule: Q04DX002 (ip), vehicle: saline with Tween-80 94 % of control | dose: 50.0 mg/kg/injection, schedule: Q04DX002 (ip), vehicle: saline with Tween-80 94 % of control | dose: 100.0 mg/kg/injection, schedule: Q04DX002 (ip), vehicle: saline with Tween-80 106 % of control | dose: 200.0 mg/kg/injection, schedule: Q04DX002 (ip), vehicle: saline with Tween-80 96 % of control

CC1SC(C)SC(C(C)(C)O)S1 (stereo unspecified)
inactive: [4] 100 % of control | [5] 100 % of control | [6] 100 % of control

Nc1ccccc1C(=O)N/N=C\c1ccc(O)cc1
inactive: [7] 94 % of control | [8] 89 % of control and 91 % of control | [10] 101 % of control and 94 % of control | [19] 99 % of control and 87 % of control

CNC(=O)c1ccccc1
inactive: [8] 98 % of control | [10] 100 % of control | [19] 100 % of control | [12] 100 % of control

CC(C)(C)C(=O)Nc1ccc(C(C)(C)C)cc1C(O)(C(F)(F)F)C(F)(F)F
inactive: [2] 92 % of control | [3] 88 % of control

Cc1c(F)cccc1[N+](=O)[O-]
inactive: [10] 104 % of control | [19] 114 % of control | [12] 123 % of control

CCCCOc1ccc(C(=O)OCCNC2CCCCC2)cc1N
inactive: dose: 6.25 mg/kg/injection, schedule: Q01DX009 (ip), vehicle: Klucel (hydroxypropylcellulose) (HPC) 100 % of control | dose: 12.5 mg/kg/injection, schedule: Q01DX009 (ip), vehicle: Klucel (hydroxypropylcellulose) (HPC) 101 % of control | dose: 25.0 mg/kg/injection, schedule: Q01DX009 (ip), vehicle: Klucel (hydroxypropylcellulose) (HPC) 93 % of control | [1] 91 % of control

NC(=O)/C=C/C(N)=O
inactive: [7] 104 % of control | [8] 98 % of control | [10] 102 % of control | [19] 107 % of control | dose: 100.0 mg/kg/injection, schedule: Q04DX003 (ip), vehicle: saline with Tween-80 90 % of control | [12] 101 % of control | dose: 200.0 mg/kg/injection, schedule: Q04DX003 (ip), vehicle: saline with Tween-80 90 % of control
